Where two headings read alike, the source gives them in different places.

Results on eight molecules are retold here after article PMC6438780 (Xenobiotica; the fate of foreign compounds in biological …, 2018).

For series [1], the system named is human liver microsomes. Nature of the series: Effects of CYP-specific inhibitors. As to conditions: liver sample HH54 microsomes.
Series [2] concerns liver microsomes of humans. As to conditions: ref data sheets provided by the manufacturer, cited from earlier work.
In series [3] the test system is human liver microsomes.
The test system of series [4] is human liver microsomes. Nature of the series: Oxidation of flavanone and flavone by human liver microsomes. Conditions: P450s and human liver microsomes, whole assay system. (In general: Microsomes from liver hold many membrane-bound enzymes, among them those of drug oxidation.)
In series [5] the target is T1, CYP2A6.1 (Homo sapiens, UniProt P11509).
T1 sequence (P11509 1-494): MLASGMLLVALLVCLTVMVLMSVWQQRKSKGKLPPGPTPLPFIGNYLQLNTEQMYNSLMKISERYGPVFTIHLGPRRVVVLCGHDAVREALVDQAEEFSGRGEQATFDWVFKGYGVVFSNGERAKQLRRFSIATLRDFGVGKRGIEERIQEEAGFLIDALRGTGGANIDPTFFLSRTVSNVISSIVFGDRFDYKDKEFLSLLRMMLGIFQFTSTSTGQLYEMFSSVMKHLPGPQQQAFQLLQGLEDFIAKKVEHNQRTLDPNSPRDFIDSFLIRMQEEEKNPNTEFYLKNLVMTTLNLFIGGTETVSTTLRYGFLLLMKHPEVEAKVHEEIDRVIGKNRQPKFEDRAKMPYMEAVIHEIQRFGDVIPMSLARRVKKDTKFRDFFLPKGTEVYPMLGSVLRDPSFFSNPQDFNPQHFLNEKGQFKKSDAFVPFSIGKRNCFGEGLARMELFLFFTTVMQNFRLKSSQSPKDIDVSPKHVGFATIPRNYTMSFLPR
As to conditions: 20 min, 60 µM.

`O=c1cc(-c2ccccc2)oc2c1ccc1ccccc12` [ANF, α-naphthoflavone]: the “effect on formation of 7OHFva, 3´OHFva, 4´OHFva OHFvaM5, and OHFvaM6 (from flavanone)” value in series [1] (60 µM flavanone) is given as “inhibited”. For the same molecule, the “effect on formation of OHFM11, diOHFM3, and diOHFM5 (from flavone)” value in series [1] (60 µM flavone) is given as “inhibited”.
In the case of `CC(=O)O[C@H]1C(=O)[C@@]2(C)[C@H]([C@H](OC(=O)c3ccccc3)[C@]3(O)C[C@H](OC(=O)[C@H](O)[C@@H](NC(=O)c4ccccc4)c4ccccc4)C(C)=C1C3(C)C)[C@]1(OC(C)=O)CO[C@@H]1C[C@@H]2O` [Paclitaxel], the “Paclitaxel 6a-hydroxylation” value was 0.093 nmol/min/mg in series [2] (human sample HG95), 0.13 nmol/min/mg in series [2] (human sample HH2), 0.13 nmol/min/mg in series [2] (human sample HH47) and 0.21 nmol/min/mg in series [2] (human sample HH54).
Take `CCOc1ccc(NC(C)=O)cc1` [Phenacetin]: the “Phenacetin O-deethylation” value in series [2] (human sample HG95) was 0.26 nmol/mg/min; in series [2] (human sample HH2), 0.51 nmol/mg/min; in series [2] (human sample HH47) it was 0.36 nmol/mg/min; in series [2] (human sample HH54) it was 0.44 nmol/mg/min.
Take `CC[C@@]1(c2ccccc2)NC(=O)N(C)C1=O` [S-Mephenytoin]: the “S-Mephenytoin 4’-hydroxylation” value in series [2] (human sample HG95) is 0.015 nmol/min/mg; in series [2] (human sample HH2), 0.020 nmol/min/mg; in series [2] (human sample HH47) it was 0.0040 nmol/min/mg; in series [2] (human sample HH54), 0.026 nmol/min/mg. For the same molecule, the “S-Mephenytoin N-demethylation” value in series [2] (human sample HG95) is 0.0070 nmol/min/mg; in series [2] (human sample HH2), 0.010 nmol/min/mg; in series [2] (human sample HH47), 0.0065 nmol/min/mg; in series [2] (human sample HH54), 0.0010 nmol/min/mg.
On to `C[C@]12CC[C@H]3[C@@H](CCC4=CC(=O)CC[C@@]43C)[C@@H]1CC[C@@H]2O` [Testosterone], for which the “Testosterone 6β-hydroxylation” value in series [2] (human sample HG95) was 0.64 nmol/mg/min; in series [2] (human sample HH2) it was 0.78 nmol/mg/min; in series [2] (human sample HH47) it was 4.1 nmol/mg/min; in series [2] (human sample HH54), 4.9 nmol/mg/min.
As to `O=c1ccc2ccccc2o1` [coumarin], the “Coumarin 7-hydroxylation” value in series [2] (human sample HG95) was 0.18 nmol/mg/min; in series [2] (human sample HH2), “no detectable”; in series [2] (human sample HH47), 0.51 nmol/mg/min; in series [2] (human sample HH54), 2.5 nmol/mg/min. Also, the “effect on formation of flavone (from flavanone)” value in series [1] (60 µM flavanone) is on record as “inhibited”. Also, the “effect on 2´OHFva formation (from flavanone)” value in series [1] (60 µM flavanone, low concentration of inhibitor) is “markedly decreased”. Also, the “effect on formation of OHFM6, OHFM9, and diOHFM4 (from flavone)” value in series [1] (60 µM flavone, low concentration of inhibitor) is “strongly inhibited”.
`O=C1CC(c2ccccc2)Oc2ccccc21` (stereo not drawn) [flavanone, Flavanone]: the “rate of formation of flavone from flavanone” value in series [3] came to 0.15 nmol/min/nmol.
Take `O=c1cc(-c2ccccc2)oc2ccccc12` [flavone]: in series [4], the “enzymatic formation of 7OHF from flavone” value was “did not detect”. In addition, in series [5], the “rate of formation of 5OHF from flavone” value was ~ 0.01 nmol/min/nmol P450 and the “rate of formation of 6OHF from flavone” value turned out to be 0.11 min⁻¹.
